Measured values taken from patent publication US8796259B2, “N3-heteroaryl substituted triazoles and N5-heteroaryl substituted triazoles useful as axl inhibitors” (Rigel Pharmaceuticals, Inc., priority 2006, dated 2014).

Molecular target: T1, Axl (Homo sapiens, UniProt P30530)
T1 construct: endogenous in cells; host or cells: HeLa cells
T1 sequence (P30530 26-894): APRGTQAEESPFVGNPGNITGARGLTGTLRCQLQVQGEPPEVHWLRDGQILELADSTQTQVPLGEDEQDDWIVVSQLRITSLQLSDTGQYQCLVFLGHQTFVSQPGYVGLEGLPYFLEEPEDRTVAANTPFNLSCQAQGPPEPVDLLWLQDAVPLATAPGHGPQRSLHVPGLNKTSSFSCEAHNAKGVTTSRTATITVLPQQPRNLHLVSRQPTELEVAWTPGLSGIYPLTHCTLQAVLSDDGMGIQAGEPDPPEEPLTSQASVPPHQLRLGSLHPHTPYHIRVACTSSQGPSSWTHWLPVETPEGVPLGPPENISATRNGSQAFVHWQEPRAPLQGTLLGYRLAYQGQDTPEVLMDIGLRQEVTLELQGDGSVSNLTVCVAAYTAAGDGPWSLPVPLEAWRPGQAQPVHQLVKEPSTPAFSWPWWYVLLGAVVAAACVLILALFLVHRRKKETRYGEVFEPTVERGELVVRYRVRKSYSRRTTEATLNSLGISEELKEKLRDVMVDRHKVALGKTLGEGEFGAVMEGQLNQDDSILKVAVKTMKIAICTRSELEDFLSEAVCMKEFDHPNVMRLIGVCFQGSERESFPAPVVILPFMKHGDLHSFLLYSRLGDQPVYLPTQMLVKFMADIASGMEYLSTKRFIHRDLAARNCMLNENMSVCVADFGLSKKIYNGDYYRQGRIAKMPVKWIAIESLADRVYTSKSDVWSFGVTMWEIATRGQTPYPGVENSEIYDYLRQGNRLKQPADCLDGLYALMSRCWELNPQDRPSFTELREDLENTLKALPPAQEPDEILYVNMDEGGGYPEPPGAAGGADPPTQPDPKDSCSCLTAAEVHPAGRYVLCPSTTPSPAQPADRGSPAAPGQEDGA
Assay: Phospho-Akt in-cell Western assay (inhibition of Axl activity, Axl-antibody cross-linking stimulation)
Assay type: cell-based
Conditions: Hela cells, phospho-Akt readout; compounds of formula (Ia), Table 1
Procedure: The compounds of the invention were tested in the following assay for their ability to inhibit Axl activity.
Phospho-Akt in-Cell Western Assay
• Cell culture plate: 96 well assay plate (Corning 3610), white, clear bottom, tissue-culture treated. • Cells: Hela cells. • Starvation medium: For Axl stimulation: 0.5% FCS (fetal calf serum) in DMEM, plus Axl/Fc (extracellular domain of AXL fused to immunoglobulin Fc region) (R&D, 154-AL) 500 ng/mL. • For EGF (epidermal growth factor) stimulation: 0.5% FCS in DMEM (Dulbecco's modified Eagles medium). • Poly-L-Lysine 0.01% solution (the working solution): 10 μg/ml, dilute In PBS (phosphate buffered saline). • Axl antibody cross-linking: • 1st: Mouse anti-Axl (R&D, MAB154). • 2nd: Biotin-SP-conjugated AffiniPure goat anti-mouse IgG (H+L) (Jackson ImmunoResearch #115-065-003). • Fixing buffer: 4% formaldehyde in PBS. • Wash buffer: 0.1% TritonX-100 in PBS. • Quenching buffer: 3% H2O2, 0.1% Azide in wash buffer, Azide and hydrogen peroxide (H2O2) are added fresh. • Blocking buffer: 5% BSA in TBST (tris buffered saline plus 0.1% Tween 20). • Primary antibody: Rabbit anti-human Phospho-Akt antibody (Cell Signaling 9271): 1×250 diluted in blocking buffer. • Secondary antibody: HRP (horse radish peroxidase)-conjugated Goat anti-Rabbit secondary, stock solution: Jackson ImmunoResearch (Goat anti-Rabbit HRP, #111-035-144) 1:1 diluted in glycerol, store at −20° C. The working solution: 1×2000 dilution of stock in blocking buffer. • Chemiluminescent working solution (Pierce, 37030): SuperSignal ELISA (enzyme linked immunosorbant assay) Pico Chemiluminescent substrate. • Crystal Violet solution: Stock: 2.5% Crystal violet in methanol, filtered and kept at ambient temperature. The working solution: dilute the stock 1:20 with PBS immediately before use.
10% SDS: working solution: 5% SDS (sodium dodecylsulfate), diluted in PBS
A 96 well TC (tissue culture treated) plate was coated with 10 μg/mL poly-L-Lysine at 37° C. for 30 min, washed twice with PBS, and air-dried for 5 minutes before cells were added. Hela cells were seeded at 10,000 cells/well and the cells were starved in 100 μL starvation medium containing Axl/Fc for 24 hrs.
The cells were pre-treated with test compounds by adding 100 μL of 2× test compound to the starvation medium on the cells. The cells were incubated at 37° C. for 1 hr before stimulation.
The cells were stimulated by Axl-antibody cross-linking as follows: A 5×1st/2nd Axl antibody mixture was made (37.5 μg/mL 1st/100 μg/mL 2 nd) in starvation medium and nutated at 4° C. with thorough mixing for 1-2 hours for clustering. The resulting mix was warmed to 37° C. 50 μL of 5×Axl 1st/2nd of antibody cluster was added to the cells and the cells were incubated at 37° C. for 5 min.
After 5 minutes stimulation, the plate was flicked to remove medium and the plate was tapped onto paper towels. Formaldehyde (4.0% in PBS, 100 μL) was added to fix the cells and the cells were incubated at ambient temperature for 20 min without shaking.
The cells were washed with a plate washer buffer to remove the formaldehyde solution. The plate was flicked to removed excess wash buffer and tapped onto paper towels. Quenching buffer (100 μL) was added to each well and the cells were incubated at ambient temperature for 20 minutes without shaking.
The cells were washed with a plate washer buffer to remove the quenching buffer. Blocking buffer (100 μL) was added and the cells were incubated at ambient temperature for at least an hour with gentle shaking.
The cells were washed with a plate washer buffer and diluted primary antibody (50 μL) was added to each well (blocking buffer was added to the negative control wells instead). The plates were incubated overnight at 4° C. with gentle shaking.
The wash buffer was removed, diluted secondary antibody (100 μL) was added, and the cells were incubated at ambient temperature for 1 hour with gentle shaking. […]

Row | SMILES | IC50
1 | Nc1nc(Nc2ccc3oc(CN4CCCC4)nc3c2)nn1-c1nccc2ccccc12 [compound 1, 1-(isoquinolin-1-yl)-N^3-(2-(pyrrolidin-1-ylmethyl)benzo [d]oxazol-5-yl)-1H-1,2,4-triazole-3,5-diamine] | 1000 to 10000 nM
2 | Nc1nc(Nc2ccc3oc(CN4CCCC4)nc3c2)nn1-c1ncnc2ccc(Cl)cc12 [compound 2, 1-(6-chloro-quinazolin-4-yl)-N^3-(2-(pyrrolidin-1-ylmethyl)benzo [d]oxazol-5-yl)-1H-1,2,4-triazole-3,5-diamine] | 1000 to 10000 nM
3 | Nc1nc(Nc2ccc3c(c2)OCCO3)nn1-c1ccccc1 [compound 3, N^3-(2,3-dihydrobenzo [b][1,4]dioxin-6-yl)-1-phenyl-1H-1,2,4-triazole-3,5-diamine] | > 20000 nM
4 | Nc1nc(Nc2ccc3c(c2)OCCO3)nn1-c1nccc2ccccc12 [compound 4, N^3-(2,3-dihydrobenzo [b][1,4]dioxin-6-yl)-1-(isoquinolin-1-yl)-1H-1,2,4-triazole-3,5-diamine] | 1000 to 10000 nM
5 | COc1cc2ncnc(-n3nc(Nc4ccc5c(c4)OCCO5)nc3N)c2cc1OC [compound 5, N^3-(2,3-dihydrobenzo [b][1,4]dioxin-6-yl)-1-(6,7-dimethoxy-quinazolin-4-yl)-1H-1,2,4-triazole-3,5-diamine] | < 1000 nM
6 | COc1cc2ncnc(-n3nc(Nc4ccc(N5CCN(C6CC7CCC6C7)CC5)nc4)nc3N)c2cc1OC (centres unmarked) [compound 6, 1-(6,7-dimethoxy-quinazoline-4-yl)-N^3-(6-(4-(bicyclo[2.2.1]heptan-2-yl)piperazin-1-yl)pyridin-3-yl)-1H-1,2,4-triazole-3,5-diamine] | < 1000 nM
7 | Nc1nc(Nc2ccc(N3CCN(C4CC5CCC4C5)CC3)nc2)nn1-c1nccc2ccccc12 (centres unmarked) [compound 7, 1-(isoquinolin-1-yl)-N^3-(6-(4-(bicyclo[2.2.1]heptan-2-yl)piperazin-1-yl)pyridin-3-yl)-1H-1,2,4-triazole-3,5-diamine] | < 1000 nM
8 | COc1cc2ncnc(-n3nc(Nc4ccc(N5CCC(N6CCN(C)CC6)CC5)nc4)nc3N)c2cc1OC [compound 8, 1-(6,7-dimethoxy-quinazoline-4-yl)-N^3-(6-(4-(4-methyl-piperazin-1-yl)piperidin-1-yl)pyridin-3-yl)-1H-1,2,4-triazole-3,5-diamine] | < 1000 nM
9 | COc1cc2ncnc(-n3nc(Nc4ccc5c(c4)NC(=O)CCC5)nc3N)c2cc1OC [compound 9, 1-(6,7-dimethoxy-quinazoline-4-yl)-N^3-(4,5-dihydro-1H-benzo[b]azepin-2(3H)-on-8-yl)-1H-1,2,4-triazole-3,5-diamine] | 1000 to 10000 nM
10 | Cc1csc2c(-n3nc(Nc4ccc(N5CCCN(C6CCCC6)CC5)nc4)nc3N)nc(Cl)nc12 [compound 10, 1-(2-chloro-7-methylthieno [3,2-d]pyrimidine-4-yl)-N^3-(6-(4-cyclopentyl-1,4-diazepan-1-yl)pyridin-3-yl)-1H-1,2,4-triazole-3,5-diamine] | < 1000 nM
11 | COc1cc2ncnc(-n3nc(Nc4ccc(N5CCCN(C6CCCC6)CC5)nc4)nc3N)c2cc1OC [compound 11, 1-(6,7-dimethoxy-quinazoline-4-yl)-N^3-(6-(4-cyclopentyl-1,4-diazepan-1-yl)pyridin-3-yl)-1H-1,2,4-triazole-3,5-diamine] | < 1000 nM
12 | Cc1csc2c(-n3nc(Nc4cnc5c(c4)CCN(C4CCCC4)CC5)nc3N)nc(Cl)nc12 [compound 12, 1-(2-chloro-7-methylthieno [3,2-d]pyrimidine-4-yl)-N^3-(7-cyclopentyl-6,7,8,9-tetrahydro-5H-pyrido [3,2-d]azepin-3-yl)-1H-1,2,4-triazole-3,5-diamine] | 1000 to 10000 nM
13 | COc1cc2ncnc(-n3nc(Nc4cnc5c(c4)CCN(C4CCCC4)CC5)nc3N)c2cc1OC [compound 13, 1-(6,7-dimethoxy-quinazoline-4-yl)-N^3-(7-cyclopentyl-6,7,8,9-tetrahydro-5H-pyrido[3,2-d]azepin-3-yl)-1H-1,2,4-triazole-3,5-diamine] | < 1000 nM
14 | Cc1csc2c(-n3nc(Nc4cnc5c(c4)CN(C)CC5)nc3N)nc(Cl)nc12 [compound 14, 1-(2-chloro-7-methylthieno [3,2-d]pyrimidine-4-yl)-N^3-(6-methyl-5,6,7,8-tetrahydro-1,6-naphthyridin-3-yl)-1H-1,2,4-triazole-3,5-diamine] | > 20000 nM
15 | Cc1csc2c(-n3nc(Nc4ccc(N5CCN(C)CC5)nc4)nc3N)nc(Cl)nc12 [compound 15, 1-(2-chloro-7-methylthieno [3,2-d]pyrimidine-4-yl)-N^3-(6-(4-methyl-piperazin-1-yl)pyridin-3-yl)-1H-1,2,4-triazole-3,5-diamine] | < 1000 nM
16 | CN1CCc2ncc(Nc3nc(N)n(-c4nccc5ccccc45)n3)cc2C1 [compound 16, 1-(isoquinolin-1-yl)-N^3-(6-methyl-5,6,7,8-tetrahydro-1,6-naphthyridin-3-yl)-1H-1,2,4-triazole-3,5-diamine] | < 1000 nM
17 | Cc1csc2c(-n3nc(Nc4ccc(N5CCC(N6CCCC6)CC5)nc4)nc3N)nc(Cl)nc12 [compound 17, 1-(2-chloro-7-methyithieno [3,2-d]pyrimidine-4-yl)-N^3-(6-(4-(pyrrolidin-1-yl)piperidin-1-yl)pyridine-3-yl)-1H-1,2,4-triazole-3,5-diamine] | < 1000 nM
18 | Cc1csc2c(-n3nc(Nc4cnc5c(c4)CN(Cc4ccccc4)CC5)nc3N)nc(Cl)nc12 [compound 18, 1-(2-chloro-7-methylthieno [3,2-d]pyrimidine-4-yl)-N^3-(6-benzyl-5,6,7,8-tetrahydro-1,6-naphthyridin-3-yl)-1H-1,2,4-triazole-3,5-diamine] | 10000 to 20000 nM
19 | CCOC(=O)N1CCc2ncc(Nc3nc(N)n(-c4nc(Cl)nc5c(C)csc45)n3)cc2C1 [compound 19, 1-(2-chloro-7-methylthieno [3,2-d]pyrimidine-4-yl)-N^3-(6-(ethylcarboxy)-5,6,7,8-tetrahydro-1,6-naphthyridin-3-yl)-1H-1,2,4-triazole-3,5-diamine] | > 20000 nM
20 | Cc1csc2c(-n3nc(Nc4cnc5c(c4)CC(C(=O)N4CCCC4)CC5)nc3N)nc(Cl)nc12 (centres unmarked) [compound 20, 1-(2-chloro-7-methylthieno [3,2-d]pyrimidine-4-yl)-N^3-(6-(pyrrolidin-1ylcarbonyl)-5,6,7,8-tetrahydro-quinolin-3-yl)-1H-1,2,4-triazole-3,5-diamine] | < 1000 nM
